Patent US5681563A, “7-vinylidene cephalosporins and methods of using the same” (Research Corporation Technologies, Inc., priority 1996, dated 1997)
Counter-ions that a name gives are not always drawn. Like-named read-outs stand apart in the source and are kept apart here.

Molecular target: β-lactamase of Enterobacter cloacae P99 (Enterobacter cloacae, UniProt P05364)
Assay: P99 β-lactamase inhibitory activity (loss of nitrocefin hydrolysis by free enzyme)
Type: biochemical
Description: The activity of the present compounds against β-lactamases was determined by measuring the IC50. The IC50 value represents the concentration of inhibitor required to effect a 50% loss of activity of free enzyme. The present 7-vinylidenecephems were evaluated as inhibitors of the β-lactamase of Enterobacter cloacae P99. The IC50 value of each compound was determined as follows. Following a 10 minute incubation of a dilute solution of enzyme (2.56 nM) and inhibitor (<0.64 mM), a […] of this incubation mixture was then further diluted into 1 mL nitrocefin solution, and the rate of hydrolysis was measured during a 1 minute period by monitoring the absorbance of nitrocefin as a function of time.

[1] = P99 β-lactamase, 10 minute incubation of enzyme (2.56 nM) and inhibitor (<0.64 mM), then dilution into nitrocefin solution, rate over 1 minute
[2] = P99 β-lactamase, 10 minute incubation of enzyme (2.56 nM) and inhibitor (<0.64 mM), then dilution into nitrocefin solution, rate over 1 minute, read-out: IC50 (converted)

β-lactamase of Enterobacter cloacae P99, sequence (P05364 21-381): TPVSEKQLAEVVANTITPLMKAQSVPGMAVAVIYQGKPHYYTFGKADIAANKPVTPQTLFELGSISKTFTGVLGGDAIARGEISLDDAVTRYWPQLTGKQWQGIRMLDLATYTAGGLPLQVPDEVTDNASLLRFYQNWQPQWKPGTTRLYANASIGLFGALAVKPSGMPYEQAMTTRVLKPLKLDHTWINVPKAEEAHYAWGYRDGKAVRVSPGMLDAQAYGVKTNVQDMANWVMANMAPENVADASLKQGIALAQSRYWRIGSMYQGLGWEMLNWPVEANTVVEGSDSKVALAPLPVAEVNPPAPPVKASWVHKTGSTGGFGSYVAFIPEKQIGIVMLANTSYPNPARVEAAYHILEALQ

Question: CC(=O)OCC1=C(C(=O)[O-])N2C(=O)C(=C=CBr)C2SC1.[Na+] (stereo not drawn) [Compound 14, Sodium Salt of 7-(2'α-Bromovinylidene) Cephalosporanic Acid] was tested. Which IC50 [1] did it give?
Answer: 6160 µg/mL

Question: For “7-(2'α-t-butyl-2'β-deuteriovinylidene) cephem sulfone”, which IC50 [1] is on record?
Answer: 100 µg/mL

Question: For CC(=O)OCC1=C(C(=O)O)N2C(=O)C(=C=CC(C)(C)C)[C@H]2S(=O)(=O)C1 [Compound 16, Sodium Salt of 7-(2'α-t-Butylvinylidene) Cephalosporanic Acid Sulfone], which “fold better inhibitor than clavulanic acid” value is on record?
Answer: ~350 fold

Question: What about the “fold better inhibitor than tazobactam” value of the same molecule?
Answer: approximately five

Question: And the “β-lactamase inhibition (in words)” value?
Answer: most potent inhibitor

Question: What about the IC50 (read-out: IC50 (converted)) of the same molecule?
Answer: 135 nM

Question: How did the IC50 [2] turn out when CC(=O)OCC1=C(C(=O)O)N2C(=O)C(=C=CC(C)(C)C)[C@H]2SC1 [Compound 13, Sodium Salt of 7-(2'α-t-Butylvinylidene) Cephalosporanic Acid] was run?
Answer: 11600 nM

Question: How did the IC50 [2] turn out when CC(C)(C)C=C=C1C(=O)N2[C@@H](C(=O)O)C(C)(C)S(=O)(=O)[C@H]12 [6-(2'α-t-butylvinylidene) penam sulfone, reference compound] was run?
Answer: 1240 nM

Question: For C=C=C1C(=O)N2C(C(=O)O)=C(COC(C)=O)CS[C@H]12 [Compound 15, Sodium Salt of 7-Vinylidene Cephalosporanic Acid], which IC50 [2] is on record?
Answer: 91800 nM

Question: How did the IC50 [2] turn out when C=C=C1C(=O)N2C(C(=O)O)=C(COC(C)=O)CS(=O)(=O)[C@H]12 [Compound 17, 7-vinylidenecephem sulfone] was run?
Answer: 351 nM
